# Data from patent US10160771B2, “Hepatitis C virus inhibitors and uses thereof in preparation of drugs” (priority 2014, dated 2018).
# pEC50: −log10 of the molar value.
# Key:
# [1] = test system: HCV genotype 1b (HCV-1b) replicon cells; experiment: HCV genotype 1b replicon luciferase assay (EC50); type: cell-based, hepatitis C virus genotype 1b (Con1 clone); settings: 3 days, luciferase (Bright-Glo)
# Description: (§1) The EC50 and CC50 values of anti-HCV compounds were determined by HCV genotype 1a (HCV-1a) and 1B (HCV-1b) stable transfer replication (replicon) cells. The source of genotype 1a replicon is H77 clones containing K1691R, K2040R and S2204I adaptive mutations. The source of genotype 1b replicon is Con1 clones containing E1202G, T1280I and K1846T adaptive mutations.
# (§2) HCV 1a (HCV-1a) and 1b (HCV-1b) gene subtype replicon system contains the related HCV gene subtype non structural protein gene, G418 resistance gene NEO and luciferase gene, which results in that HCV related protein and luciferase can be stably expressed in cells. By detecting the level of expression of luciferase gene, the level of HCV replication can be determined. Therefore, the system is used as a model for screening the activity of anti-HCV compound in vitro.
# (§3) HCV Replicon Cell Lines: HCV-1a and HCV-1b Cells
# (§4) The compound powder was dissolved in 100% DMSO. Then the compound was diluted 5 times with 6 points, and added into the cell plate with Echo liquid handler. Ensure the final concentration of DMSO was 0.5%. Each compound was tested in double holes. Maximum initial concentration was 100, 10 or 1 nM, 5 times dilution, 6 points.
# (§5) b) Cell Culture (HCV-1a or HCV-1b Replicon Cell):
# (§6) 1) absorbing the culture supernatant of the cell culture and washing the cells with 10 mL PBS.
# (§7) 2) adding preheated pancreatin to the washed cell culture flasks, rotating culture bottle to make the bottom of the culture bottle uniformly covered by pancreatin, then placed into 37° C., 5% CO2 incubator to digest.
# (§8) 3) suspending cells in each T150 culture flask with 10-15 mL culture medium, absorbing 0.1 mL liquid and diluting 2 times by trypan blue solution as counted.
# (§9) 4) diluting cells to 8×10^4/mL with the culture medium, adding the diluted cells into the compound-containing 96-well plate (Greiner, Cat.#655090) (100 μL/well, 8000 cells/well) with automatic liquid separator (Thermo Scientific). Then place into a 37° C., 5% CO2 incubator for 3 days. Cell control well: no compound, only containing 0.5% DMSO.
# (§10) 6) then adding luciferase luminescence substrate Bright-Glo, after incubation for 5 minutes, detecting the luciferase activity by chemical luminescence detection system Envison (wavelength>700 nm); analyzing the anti-HCV inhibitory activity of the compounds according to luciferase data, which was used to calculate EC50 values.
# (§11) The EC50 or CC50 values were obtained by nonlinear fitting analysis on inhibition percentage (inh %) data with GraphPad Prism software.
# [2] = Cell Titer-fluor cell activity assay in HCV-1b replicon cells (CC50); type: cell-based
# Description: as §1, §3, §4, §5, §6, §7, §8, §9
# 5) adding chemiluminescent substrate Cell Titer-fluor to the cell well, after incubation for 30 minutes, detecting the signal by chemiluminescence detection system Envison (Ex at 405 nm and read at 515 nm). The effect of the compounds on the activity of HCV replicon cells was analyzed according to the luminescence data, which was used to calculate the CC50 values.
# as §11
# [3] = test system: HCV genotype 1a (HCV-1a) replicon cells; experiment: HCV genotype 1a replicon luciferase assay (EC50); type: cell-based, hepatitis C virus genotype 1a (H77 clone); settings: 3 days, luciferase (Bright-Glo)
# Description: as §1, §2, §3, §4, §5, §6, §7, §8, §9, §10, §11
Structure (SMILES),"pEC50 ([1]; Hepatitis C virus, 72 h)",CC50 at 3 days [2] [nM],"pEC50 ([3]; Hepatitis C virus, 72 h)",pEC50 [1],pEC50 [3]
COC(=O)N[C@H](C(=O)N1CCC[C@H]1c1cnc(-c2ccc(-c3ccc(-c4ncc(C5C6CCC(C6)[C@@H]5C(=O)N(NC(=O)OC)C(C)C)[nH]4)cc3)cc2OC)[nH]1)C(C)C (stereo partly shown) [AA_166_B],9.00 to 10.00,> 5,7.00 to 8.00,–,–
COC(=O)N[C@H](C(=O)N1CCC[C@H]1c1ncc(-c2ccc(-c3ccc(-c4cnc(C5C6CCC(C6)[C@@H]5C(=O)N(NC(=O)OC)C(C)C)[nH]4)cc3)cc2Cl)[nH]1)C(C)C (stereo partly shown) [AA_156],10.00 to 12.00,> 1,8.00 to 9.00,–,–
COC(=O)N[C@H](C(=O)N1CCC[C@H]1c1ncc(-c2ccc(-c3ccc(-c4cnc(C5C6CCC(C6)[C@@H]5C(=O)NC(C)c5cccnc5)[nH]4)cc3)cc2)[nH]1)C(C)OC (stereo partly shown) [AA_251_B],9.00 to 10.00,> 1,8.00 to 9.00,–,–
COC(=O)N[C@H](C(=O)N1CCC[C@H]1c1ncc(-c2ccc(-c3ccc(-c4cnc([C@H]5C6CCC(C6)[C@@H]5C(=O)Nc5ccccc5)[nH]4)cc3)cc2)[nH]1)C(C)C (stereo partly shown) [AA_237_A],9.00 to 10.00,> 1,7.00 to 8.00,–,–
COC(=O)N[C@H](C(=O)N1CCC[C@H]1c1ncc(-c2ccc(-c3ccc(-c4cnc([C@H]5C6CCC(C6)[C@@H]5C(=O)NCc5ccco5)[nH]4)cc3)cc2)[nH]1)C(C)C (stereo partly shown) [AA_198_A],10.00 to 12.00,> 1,8.00 to 9.00,–,–
COC(=O)N[C@H](C(=O)N1CCC[C@H]1c1ncc(-c2ccc(-c3ccc(-c4cnc([C@H]5C6CCC(C6)[C@@H]5C(=O)NCCc5ccncc5)[nH]4)cc3)cc2)[nH]1)C(C)C (stereo partly shown) [AA_209_A],10.00 to 12.00,> 1,7.00 to 8.00,–,–
COC(=O)N[C@H](C(=O)N1CCCC1c1ccc(-c2ccc(-c3ccc(-c4cnc([C@@H]5CCCN5C(=O)[C@@H](NC(=O)OC)C5CCOC5)[nH]4)cc3)cc2)[nH]1)C(C)C (stereo partly shown) [AG_054],10.00 to 12.00,> 10,9.00 to 10.00,–,–
COC(=O)N[C@H](C(=O)N1CCC[C@H]1c1ncc(-c2ccc(-c3ccc(-c4cnc(C5C6CCC(C6)[C@@H]5C(=O)NCc5cncc(C(C)C)c5)[nH]4)cc3)cc2)[nH]1)[C@@H](C)OC (stereo partly shown) [AA_254_A],9.00 to 10.00,> 1,7.00 to 8.00,–,–
COC(=O)N[C@H](C(=O)N1CCC[C@H]1c1ncc(-c2ccc(-c3ccc(-c4cnc(C5[C@H]6CC[C@H](C6)[C@H]5C(=O)NCc5cnccn5)[nH]4)cc3)cc2)[nH]1)C(C)C (stereo partly shown) [AA_206_ENDOA2],10.00 to 12.00,> 1,9.00 to 10.00,–,–
COC(=O)N[C@H](C(=O)N1CCC[C@H]1c1ncc(-c2ccc(-c3ccc(-c4cnc(C5C6CCC(C6)[C@@H]5C(=O)NCc5cccnc5OC)[nH]4)cc3)cc2)[nH]1)[C@@H](C)OC (stereo partly shown) [AA_257_A],9.00 to 10.00,> 1,8.00 to 9.00,–,–
COC(=O)N[C@H](C(=O)N1CCC[C@H]1c1ncc(-c2ccc(-c3ccc(-c4cnc(C5C6CCC(C6)[C@H]5C(=O)NCc5cccnc5C(F)(F)F)[nH]4)cc3)cc2)[nH]1)[C@@H](C)OC (stereo partly shown) [AA_255_B],10.00 to 12.00,> 1,7.00 to 8.00,–,–
COC(=O)N[C@H](C(=O)N1C[C@@H](OC)C[C@H]1c1ncc(-c2ccc(-c3ccc(-c4cnc([C@H]5C6CCC(C6)[C@@H]5C(=O)NCc5cccnc5)[nH]4)cc3)cc2)[nH]1)[C@@H](C)OC (stereo partly shown) [AA_231_B],10.00 to 12.00,> 1,8.00 to 9.00,–,–
"COC(=O)N[C@H](C(=O)N1CCCC1c1ccc(-c2ccc(-c3ccc(-c4cnc([C@@H]5CCCN5C(=O)[C@@H](NC(=O)OC)[C@@H](C)OC)[nH]4)cc3)cc2)[nH]1)[C@@H](C)OC (single isomer, unassigned) [AG_072_A]",–,> 1,–,10.00 to 12.00,10.00 to 12.00
CNC(=O)[C@@H](NC(=O)[C@@H]1[C@@H]2CC[C@@H](C2)[C@H]1c1ncc(-c2ccc(-c3ccc(-c4cnc([C@@H]5CCCN5C(=O)[C@@H](NC(=O)OC)C(C)C)[nH]4)cc3)cc2)[nH]1)C(C)C [AA_298_ENDOA2],10.00 to 12.00,> 1,8.00 to 9.00,–,–
COC(=O)N[C@H](C(=O)N1C[C@@H](OC)C[C@H]1c1ncc(-c2ccc(-c3ccc(-c4cnc([C@H]5C6CCC(C6)[C@@H]5C(=O)NCc5cccnc5)[nH]4)cc3)cc2)[nH]1)C(C)C (stereo partly shown) [AA_230_B],10.00 to 12.00,> 1,8.00 to 9.00,–,–
COC(=O)N[C@H](C(=O)N1CCC[C@H]1c1ccc(-c2ccc(-c3ccc(-c4cnc([C@@H]5CCCN5C(=O)[C@@H](NC(=O)OC)C5CCCCC5)[nH]4)cc3)cc2)[nH]1)C(C)C [AG_101],10.00 to 12.00,> 1,8.00 to 9.00,–,–
COC(=O)N[C@H](C(=O)N1CCC[C@H]1c1ncc(-c2ccc(-c3ccc(-c4cnc([C@H]5CCCC[C@@H]5C(=O)NCc5ccc(Cl)nc5)[nH]4)cc3)cc2)[nH]1)C(C)C [AA_185],9.00 to 10.00,> 5,7.00 to 8.00,–,–
COC(=O)N[C@H](C(=O)N1CCC[C@H]1c1ncc(-c2ccc(-c3ccc(-c4[nH]c(C5CCCN5C(=O)[C@@H]5COC(=O)N5)c5c4CCC5)cc3)cc2)[nH]1)C(C)C (stereo partly shown) [AG_084_A],9.00 to 10.00,> 1,8.00 to 9.00,–,–
COC(=O)N[C@H](C(=O)N1CCC[C@H]1c1ncc(-c2ccc(-c3ccc(-c4cnc([C@@H]5C6CCC(C6)[C@H]5C(=O)NCc5ccc(C(F)(F)F)nc5)[nH]4)cc3)cc2)[nH]1)C(C)C (stereo partly shown) [AA_232_B],10.00 to 12.00,> 1,8.00 to 9.00,–,–
COC(=O)N[C@H](C(=O)N1CCC[C@H]1c1ncc(-c2ccc(-c3ccc(-c4cnc([C@@H]5C6CCC(C6)C5C(=O)NCc5cccnc5)[nH]4)cc3)nc2)[nH]1)[C@@H](C)OC (stereo partly shown) [AA_242_B],9.00 to 10.00,> 1,7.00 to 8.00,–,–
COC(=O)N[C@H](C(=O)N1CCC[C@H]1c1ncc(-c2ccc(-c3ccc(-c4cnc([C@@H]5[C@H]6CC[C@H](C6)[C@H]5C(=O)N[C@H](C)c5cccnc5)[nH]4)cc3)cc2)[nH]1)C(C)C [AA_204_ENDOA2_B],10.00 to 12.00,> 1,8.00 to 9.00,–,–
COC(=O)N[C@H](C(=O)N1CCC[C@H]1c1ncc(-c2ccc(-c3ccc(-c4cnc([C@@H]5CCCC[C@H]5C(=O)N(NC(=O)OC)C(C)C)[nH]4)cc3)cc2)[nH]1)C(C)C [AA_091_A],8.00 to 9.00,> 10,–,–,–
COC(=O)N[C@H](C(=O)N1CCC[C@H]1c1[nH]c(-c2ccc(-c3ccc4cc(-c5cnc(C6CCCC[C@@H]6C(=O)N(NC(=O)OC)C(C)C)[nH]5)ccc4c3)cc2)c2c1CCC2)C(C)C (stereo partly shown) [AA_094],7.00 to 8.00,> 10,–,–,–
COC(=O)NN(C(=O)[C@@H]1CCCCC1c1ncc(-c2ccc3cc(-c4ccc(-c5cnc(C6CCCC[C@@H]6C(=O)N(CC(=O)NC6CC6)C(C)C)[nH]5)cc4)ccc3c2)[nH]1)C(C)C (stereo partly shown) [AA_075],7.00 to 8.00,> 10,–,–,–
COC(=O)NC(C(=O)C1CCCCC1c1ncc(-c2ccc(-c3ccc(-c4[nH]c([C@@H]5CCCN5C(=O)[C@@H](NC(=O)OC)C(C)C)c5c4CCC5)cc3)cc2)[nH]1)C(C)C (stereo partly shown) [AA_100],7.00 to 8.00,> 10,–,–,–
COC(=O)NC(C(=O)N1CCCC1c1[nH]c(-c2ccc(-c3ccc(-c4cnc(C5CCCC[C@@H]5C(=O)N(NC(=O)OC)C(C)C)[nH]4)cc3)cc2)c2c1CCC2)C1CCOCC1 (stereo partly shown) [AL_003],7.00 to 8.00,> 10,–,–,–
COC(=O)N[C@H](C(=O)N1CCC[C@H]1c1ncc(-c2ccc(-c3ccc(-c4cnc(C5=C(C(=O)N(NC(=O)OC)C(C)C)CCC5)[nH]4)cc3)cc2)[nH]1)C(C)C [AA_007],8.00 to 9.00,> 100,–,–,–
COC(=O)N[C@H](C(=O)N1CCC[C@H]1c1ncc(-c2ccc(-c3ccc(-c4cnc(C5CCC[C@H]5C(=O)NC(C)C)[nH]4)cc3)cc2)[nH]1)C(C)C (stereo partly shown) [AA_028],8.00 to 9.00,> 100,–,–,–
COC(=O)N[C@H](C(=O)N1CCC[C@H]1c1ncc(-c2ccc(-c3ccc(-c4cnc(C5CCCC5C(=O)N(NC(=O)OC)C(C)C)[nH]4)cc3)cc2)[nH]1)C(C)C (stereo partly shown) [AA_008],8.00 to 9.00,> 100,–,–,–
